Laboratory results from ChEMBL document CHEMBL4811240, “Discovery of N-substituted sulfamoylbenzamide derivatives as novel inhibitors of STAT3 signaling pathway based on Niclosamide” (Eur J Med Chem, 2021).
Active and inactive are the calls of the source. No cut-off for these calls is given here.

What was measured:
MDA-MB-231 [1] = experiment: Antiproliferative activity against human MDA-MB-231 cells assessed as inhibition of cell viability at 10 uM after 48 hrs by MTT assay relative to control; format: functional
HCT-116 [2] = experiment: Antiproliferative activity against human HCT116 cells assessed as inhibition of cell viability at 10 uM after 48 hrs by MTT assay relative to control; format: functional
SW480 [3] = experiment: Antiproliferative activity against human SW480 cells assessed as inhibition of cell viability at 10 uM after 48 hrs by MTT assay relative to control; format: functional
L3.6pl = experiment: Antiproliferative activity against human L3.6 cells assessed as inhibition of cell viability at 10 uM after 48 hrs by MTT assay relative to control; format: functional
[4] = Lipophilicity, log P of the compound; format: physicochemical; settings: octanol/water
MDA-MB-231 [5] = experiment: Antiproliferative activity against human MDA-MB-231 cells assessed as inhibition of cell viability after 48 hrs by MTT assay; format: functional, cell-based; settings: MDA-MB-231, 48 h
HCT-116 [6] = experiment: Antiproliferative activity against human HCT-116 cells assessed as inhibition of cell viability after 48 hrs by MTT assay; format: functional, cell-based; settings: HCT-116, 48 h
SW480 [7] = experiment: Antiproliferative activity against human SW480 cells assessed as inhibition of cell viability after 48 hrs by MTT assay; format: functional, cell-based; settings: SW480, 48 h
[8] = molecular target: Signal transducer and activator of transcription 3 (Homo sapiens) (UniProt P40763); experiment: Inhibition of STAT3 promoter activity in human MDA-MB-231 cells at 1 uM incubated for 24 hrs by dual luciferase reporter assay; format: cell-based
Sequence of Signal transducer and activator of transcription 3 (Homo sapiens) (P40763 whole entry): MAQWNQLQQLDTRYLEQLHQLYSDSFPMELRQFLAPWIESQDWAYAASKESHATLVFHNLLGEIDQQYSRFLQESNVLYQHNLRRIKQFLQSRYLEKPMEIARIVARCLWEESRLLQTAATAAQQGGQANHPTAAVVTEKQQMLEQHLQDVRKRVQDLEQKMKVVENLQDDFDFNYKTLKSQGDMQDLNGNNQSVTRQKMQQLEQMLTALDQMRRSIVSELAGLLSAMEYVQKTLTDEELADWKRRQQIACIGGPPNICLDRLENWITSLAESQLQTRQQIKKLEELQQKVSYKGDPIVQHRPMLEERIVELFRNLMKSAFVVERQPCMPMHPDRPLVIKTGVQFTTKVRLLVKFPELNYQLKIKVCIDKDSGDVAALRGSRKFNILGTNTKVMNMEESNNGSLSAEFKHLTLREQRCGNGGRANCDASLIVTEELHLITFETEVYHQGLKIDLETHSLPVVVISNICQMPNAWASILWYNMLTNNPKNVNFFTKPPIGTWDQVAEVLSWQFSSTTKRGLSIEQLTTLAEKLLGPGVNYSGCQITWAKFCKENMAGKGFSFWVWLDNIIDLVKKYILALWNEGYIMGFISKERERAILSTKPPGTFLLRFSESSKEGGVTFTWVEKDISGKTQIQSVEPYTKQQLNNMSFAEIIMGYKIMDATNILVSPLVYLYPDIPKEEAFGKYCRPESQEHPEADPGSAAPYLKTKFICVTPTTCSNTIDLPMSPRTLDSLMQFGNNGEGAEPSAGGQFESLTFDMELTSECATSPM

MDA-MB-231 [9] = experiment: Induction of apoptosis in human MDA-MB-231 cells assessed as apoptotic cells at 10 uM measured after 24 hrs by annexinV-FITC/propidium iodide staining based flow cytometry analysis (reference value: 2.49%); format: functional
MDA-MB-231 [10] = experiment: Inhibition of human MDA-MB-231 cells migration a 1000 nM after 24 hrs by crystal violet staining based transwell migration assay; format: functional, cell-based

| Structure (SMILES) | logP [4] | IC50 (MDA-MB-231 [5]) [µM] | IC50 (HCT-116 [6]) [µM] | IC50 (SW480 [7]) [µM] | inhibition [8] [%] | inhibition at 10 µM (MDA-MB-231 [1]) [%] | inhibition at 10 µM (HCT-116 [2]) [%] | inhibition at 10 µM (SW480 [3]) [%] | inhibition at 10 µM (L3.6pl) [%] | Activity (MDA-MB-231 [9]) [%] | inhibition (MDA-MB-231 [10]) |
| --- | --- | --- | --- | --- | --- | --- | --- | --- | --- | --- | --- |
| COc1ccccc1CNC(=O)c1ccc(Cl)c(S(N)(=O)=O)c1 | 1.77 | > 20 | > 20 | > 20 | – | 35 | 50 | 42.8 | 17.3 | – | – |
| COc1cc(NC(=O)c2cccc(S(N)(=O)=O)c2)c(C(=O)O)cc1OC | 0.37 | 17.9 | > 20 | > 20 | – | 52.1 | 22.1 | 22.9 | 23.3 | – | – |
| O=C(Nc1ccc([N+](=O)[O-])cc1Cl)c1cc(Cl)ccc1O [NICLOSAMIDE] | 3.17 | 0.8 | – | – | 88.2 | 91.5 | 73.8 | 76.8 | 66.2 | 19.91 | Active |
| NS(=O)(=O)c1cccc(NC(=O)c2ccc(Cl)c(S(N)(=O)=O)c2)c1 | 1.19 | 11.9 | 17.2 | > 20 | – | 52.8 | 52.2 | 34.3 | 12.1 | – | – |
| NS(=O)(=O)c1cc(C(=O)NCc2cccc(Cl)c2Cl)ccc1Cl | 2.97 | > 20 | 9.62 | > 20 | – | 51.5 | 70.4 | 19.6 | 11.6 | – | – |
| COc1cc(NC(=O)c2ccc(Cl)c(S(=O)(=O)NC(=O)c3c(OC)cccc3OC)c2)cc(OC)c1OC | – | – | – | – | – | 18.1 | 10.2 | 30.6 | 4.06 | – | – |
| COc1ccc(CNC(=O)c2ccc(Cl)c(S(N)(=O)=O)c2)cc1 | – | – | – | – | – | 54 | 43.1 | 16.2 | 29 | – | – |
| COc1cc(NC(=O)c2ccc(Cl)c(S(=O)(=O)NC(=O)c3ccccc3)c2)cc(OC)c1OC | – | – | – | – | – | 2.05 | 32.3 | 29.5 | -27.8 | – | – |
| C=C(C)C(=O)NS(=O)(=O)c1cc(C(=O)Nc2cc(OC)c(OC)c(OC)c2)ccc1Cl | – | – | – | – | – | 4.84 | 30 | 22.3 | -11.3 | – | – |
| NS(=O)(=O)c1cc(C(=O)Nc2ccc([N+](=O)[O-])cc2Cl)ccc1Cl | 2.73 | 14.3 | 19.1 | > 20 | – | 56.3 | 49.5 | 38.2 | 12.3 | – | – |

Now from value to compound, other results behind:

| logP [4] | IC50 (MDA-MB-231 [5]) [µM] | IC50 (HCT-116 [6]) [µM] | IC50 (SW480 [7]) [µM] | inhibition [8] [%] | Structure (SMILES) | inhibition at 10 µM (MDA-MB-231 [1]) [%] | inhibition at 10 µM (HCT-116 [2]) [%] | inhibition at 10 µM (SW480 [3]) [%] | inhibition at 10 µM (L3.6pl) [%] | Activity (MDA-MB-231 [9]) [%] | inhibition (MDA-MB-231 [10]) |
| --- | --- | --- | --- | --- | --- | --- | --- | --- | --- | --- | --- |
| 2.76 | 7.32 | 10.8 | > 20 | – | NS(=O)(=O)c1cc(C(=O)Nc2ccc(C(F)(F)F)cc2)ccc1Cl | 27.3 | 55.4 | 47.4 | 29.6 | – | – |
| 1.54 | 0.7 | 9.82 | – | – | CC(C)(C)OC(=O)c1ccc(NC(=O)c2cccc(S(N)(=O)=O)c2)cc1 | 91.1 | 79.3 | 55.4 | 31.2 | – | – |
| 1.34 | > 20 | 18.6 | > 20 | – | COc1cccc(CNC(=O)c2ccc(Cl)c(S(N)(=O)=O)c2)c1 | 36.3 | 64.2 | 37.7 | 19.4 | – | – |
| 0.96 | 13.6 | 11.2 | > 20 | – | COc1cccc(NC(=O)c2cccc(S(N)(=O)=O)c2)c1 | 57.6 | 51.4 | 28.3 | 15.2 | – | – |
| 0.79 | 12.7 | 10.7 | > 20 | – | COc1cc(NC(=O)c2cccc(S(N)(=O)=O)c2)cc(OC)c1OC | 59.4 | 57.7 | 26.9 | 19.5 | – | – |
